# According to US10175256B2, “Compositions and methods utilizing lysophosphatidylcholine scaffolds” (National University Of Singapore, priority 2013, dated 2019):
# Where “and” joins values, the source holds several entries; their conditions need not be identical. Equal values may be shown once.
# What was measured:
# [1] = biological target: T1, mouse Mfsd2a (Mus musculus, UniProt Q9DA75); assay: Cell-based free fatty acid transport/uptake in Mfsd2a expressing HEK293 cells (mass spectrometry, TLC; Table 1); conditions: replicate columns; for Amount of each lipid species, mol percent in total phospholipid analysed: Mfsd2a expressing HEK293 cells incubated with 100 uM Arachidonic fatty acid/BSA complex overnight; for Amount of lipid species, mol percent in total phospholipid analysed / Amount of each lipid species normalized to internal standard, mol percent in total phospholipid analysed: Mfsd2a expressing HEK293 cells
# T1 construct: expressed in transfected cells; host or cells: HEK293
# T1 sequence (Q9DA75 1-534): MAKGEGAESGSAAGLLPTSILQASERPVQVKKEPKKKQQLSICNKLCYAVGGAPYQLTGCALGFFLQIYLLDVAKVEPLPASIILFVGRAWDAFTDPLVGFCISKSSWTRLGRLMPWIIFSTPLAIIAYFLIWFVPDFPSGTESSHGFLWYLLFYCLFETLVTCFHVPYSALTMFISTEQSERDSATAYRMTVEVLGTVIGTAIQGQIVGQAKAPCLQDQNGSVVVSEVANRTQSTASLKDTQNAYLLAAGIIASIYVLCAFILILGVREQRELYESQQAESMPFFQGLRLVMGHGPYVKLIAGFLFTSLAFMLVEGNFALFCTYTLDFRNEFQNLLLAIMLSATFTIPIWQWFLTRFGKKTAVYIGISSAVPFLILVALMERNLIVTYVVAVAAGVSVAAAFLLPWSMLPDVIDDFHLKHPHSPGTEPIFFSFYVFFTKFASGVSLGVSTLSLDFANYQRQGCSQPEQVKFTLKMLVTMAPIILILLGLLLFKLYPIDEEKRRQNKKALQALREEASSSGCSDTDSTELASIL
# Method: (§1) FIG. 12. […] Std: free [^14C]-DHA. b. TLC analysis of phospholipids and neutral lipids of HEK293 cells transfected with mouse Mfsd2a and mutants after overnight incubation with 100 μM [^14C]-oleate. TLC protocol used was described in Methods. PC: phosphatidylcholine, PE: phosphatidylethanolamine, TAG: triglyceride, CE: cholesteryl ester.
# (§2) For tissue lipid analysis, brain, liver, and heart of female WT and KO mice with age of 7-8 weeks born to HET mothers, and brains from e18.5 embryos were collected and immediately frozen with liquid nitrogen until extraction. Lipid extraction was followed by chloroform/methanol method. For cell-based free fatty acid transport, lipids from HEK293 cells expressing mouse Mfsd2a and mock controls after overnight treatment with 100 μM docosahexaenoic, arachidonic, eicosapentaenoic, alpha-linolenic, linoleic, oleic, palmitic acids in BSA complex were extracted using HIP buffer (hexane:iso-propanol 3:2, per volume) and dried under N2 gas. Phospholipid species were measured by high performance liquid chromatography (HPLC) 1100 system (Agilent) coupled with an Triple Quadrupole/Ion Trap mass spectrometer (4000Qtrap, Applied Biosystem). Levels of individual phospholipid species were analyzed as described previously and quantified using spiked internal standards that includes PC-14:0/14:0, PE-14:0/14:0, PS-14:0/14:0 (Avanti Polar Lipids, Alabaster, Ala., USA), and dioctanoyl PI (Echelon Biosciences, Inc., Salt Lake City, Utah, USA).
# [2] = test system: mouse Mfsd2a; assay: as above; conditions: MS, replicate columns; for Amount of each lipid species, mol percent in total phospholipid analysed: mock HEK293 cells incubated with 100 uM Arachidonic fatty acid/BSA complex overnight; for Amount of each lipid species normalized to internal standard, mol percent in total phospholipid analysed / Amount of lipid species, mol percent in total phospholipid analysed: mock HEK293 cells; for Amount of lipid species, mol percent in total phospholipid analysed: 100 uM Oleic fatty acid/BSA complex overnight
# Method: as §1, §2
# [3] = 100 uM Alpha-linolenic fatty acid/BSA complex overnight
# [4] = 100 uM Linoleic fatty acid/BSA complex overnight
# [5] = 100 uM Docosahexaenoic acid/BSA complex overnight, MS
# [6] = 100 uM Eicosapentaenoic acid/BSA complex overnight, MS
# [7] = 100 uM Oleic fatty acid/BSA complex overnight, MS
# [8] = 100 uM Docosahexaenoic acid/BSA complex overnight
# [9] = 100 uM Eicosapentaenoic acid/BSA complex overnight
SMILES,"Amount of each lipid species, mol percent in total phospholipid analysed ([1]; MS)","Amount of lipid species, mol percent in total phospholipid analysed [1, 3]","Amount of lipid species, mol percent in total phospholipid analysed [1, 4]","Amount of each lipid species normalized to internal standard, mol percent in total phospholipid analysed [1, 5]","Amount of each lipid species normalized to internal standard, mol percent in total phospholipid analysed [1, 6]","Amount of lipid species, mol percent in total phospholipid analysed [1, 7]","Amount of each lipid species, mol percent in total phospholipid analysed [2]","Amount of each lipid species normalized to internal standard, mol percent in total phospholipid analysed [2, 8]","Amount of each lipid species normalized to internal standard, mol percent in total phospholipid analysed [2, 9]","Amount of lipid species, mol percent in total phospholipid analysed [2]"
CCCCCCCCCCCCCCCCCC(=O)OC[C@@H](O)COP(=O)([O-])OCC[N+](C)(C)C [LysoPC18:0],0.006865 mol percent and 0.00639 mol percent and 0.005642 mol percent and 0.008281 mol percent,0.008875 mol percent and 0.009786 mol percent and 0.00943 mol percent and 0.009646 mol percent,0.006967 mol percent and 0.006454 mol percent and 0.007395 mol percent and 0.006903 mol percent,0.009464 mol percent and 0.008616 mol percent and 0.009301 mol percent and 0.008257 mol percent,0.006896 mol percent and 0.007974 mol percent and 0.005812 mol percent and 0.007684 mol percent,0.005262 mol percent and 0.005101 mol percent and 0.005659 mol percent and 0.004823 mol percent,0.006849 mol percent and 0.006628 mol percent and 0.006426 mol percent,0.008486 mol percent and 0.008947 mol percent and 0.009444 mol percent,0.006911 mol percent and 0.007615 mol percent and 0.006374 mol percent,0.005105 mol percent and 0.004638 mol percent and 0.005658 mol percent
CCCCCCCCCCCCCCCCCCOC[C@@H](O)COP(=O)([O-])OCC[N+](C)(C)C [LysoPC18:0e],0.001403 mol percent and 0.001832 mol percent and 0.001957 mol percent and 0.00156 mol percent,0.001528 mol percent and 0.001007 mol percent and 0.001383 mol percent and 0.001468 mol percent,0.00128 mol percent and 0.001885 mol percent and 0.001443 mol percent and 0.001726 mol percent,0.002316 mol percent and 0.001944 mol percent and 0.002079 mol percent and 0.002217 mol percent,0.002414 mol percent and 0.001699 mol percent and 0.001986 mol percent and 0.001832 mol percent,0.002105 mol percent and 0.002254 mol percent and 0.001084 mol percent and 0.001841 mol percent,0.00137 mol percent and 0.002231 mol percent and 0.001637 mol percent,0.002177 mol percent and 0.002156 mol percent and 0.002215 mol percent,0.001609 mol percent and 0.002109 mol percent and 0.001671 mol percent,0.001802 mol percent and 0.00157 mol percent and 0.001773 mol percent
CCCCCCCCCCCCCCCC(=O)OC[C@@H](O)COP(=O)(O)OCCN [LysoPE16:0],0.1468 mol percent and 0.08379 mol percent and 0.1077 mol percent and 0.1337 mol percent,0.1381 mol percent and 0.2428 mol percent and 0.2355 mol percent and 0.07619 mol percent,0.03967 mol percent and 0.1018 mol percent and 0.06313 mol percent and 0.02483 mol percent,0.08329 mol percent and 0.03847 mol percent and 0.07102 mol percent and 0.05717 mol percent,0.09357 mol percent and 0.09693 mol percent and 0.09655 mol percent and 0.07626 mol percent,0.04601 mol percent and 0.01705 mol percent and 0.1151 mol percent and 0.08973 mol percent,0.08991 mol percent and 0.08319 mol percent and 0.0827 mol percent,0.06318 mol percent and 0.083 mol percent and 0.06994 mol percent,0.06426 mol percent and 0.1796 mol percent and 0.1079 mol percent,0.056 mol percent and 0.03411 mol percent and 0.06706 mol percent
CCCCCCCCCCCCCC/C=C\OC[C@@H](O)COP(=O)(O)OCCN [LysoPE16:0p],2.79 mol percent and 2.681 mol percent and 2.307 mol percent and 2.64 mol percent,–,–,–,–,–,3.439 mol percent and 2.895 mol percent and 2.928 mol percent,–,–,–
CCCCCCCCCCCCCCCCCC(=O)OC[C@@H](O)COP(=O)(O)OCCN [LysoPE18:0],0.2569 mol percent and 0.2304 mol percent and 0.2461 mol percent and 0.117 mol percent,0.3947 mol percent and 0.2832 mol percent and 0.2186 mol percent and 0.3429 mol percent,0.1058 mol percent and 0.1018 mol percent and 0.1894 mol percent and 0.0869 mol percent,0.1666 mol percent and 0.2308 mol percent (2×) and 0.1334 mol percent,0.1092 mol percent and 0.307 mol percent and 0.1931 mol percent and 0.2135 mol percent,0.09201 mol percent and 0.1193 mol percent and 0.148 mol percent and 0.05384 mol percent,0.1798 mol percent and 0.2163 mol percent and 0.1654 mol percent,0.2527 mol percent and 0.249 mol percent and 0.1539 mol percent,0.2356 mol percent and 0.2515 mol percent and 0.1233 mol percent,0.168 mol percent and 0.1023 mol percent and 0.04024 mol percent
CCCCCCCCCCCCCCCC/C=C\OC[C@@H](O)COP(=O)(O)OCCN [LysoPE18:0p],0.5873 mol percent and 0.5865 mol percent and 0.323 mol percent and 0.5348 mol percent,–,–,–,–,–,0.6519 mol percent and 0.416 mol percent and 0.215 mol percent,–,–,–
CCCCCCCCCCCCCCCCCC/C=C\OC[C@@H](O)COP(=O)(O)OCCN [LysoPE20:0p],0.3303 mol percent and 0.2723 mol percent and 0.1846 mol percent and 0.2172 mol percent,–,–,–,–,–,0.2922 mol percent and 0.183 mol percent and 0.1158 mol percent,–,–,–
